Values quoted from earlier work as cited in patent US20030135108A1, “High throughput screening methods using magnetic resonance imaging agents” (priority 2001, published 2003).

Conditions: thermodynamic stability of the Gd(III) chelate complex

Row | stability constant (K), formation constant, logK | SMILES
1 | 22.4 | O=C([O-])CN(CCN(CC(=O)[O-])CC(=O)[O-])CCN(CC(=O)[O-])CC(=O)[O-].[Gd+3] [Gd(DTPA)^2−]
2 | 28.5 | O=C([O-])CN1CCN(CC(=O)[O-])CCN(CC(=O)O)CCN(CC(=O)[O-])CC1.[Gd+3] [Gd-DOTA]
